Test results as given in patent publication US5827562A, “Sweetener salts” (Holland Sweetener Company V.o.F., priority 1995, dated 1998).
“And” between values parts separate entries of the source, which are not always exact repeats. Equal entries are not always repeated. Structures can show the parent of a compound that is named as a salt. Where two headings read alike, the source gives them in different places. Peptide text beside a SMILES is read from it.

What was measured:
[1] = Moisture content, Karl-Fischer water determination; assay type: physicochemical; details: dried product
Procedure: b. The moisture content of the products obtained was determined by means of the Karl-Fischer water determination.

[2] = Thermal stability test: open dish in thermostatted oven, decomposition products (DKP, AP) by hplc; assay type: physicochemical; details: for DKP content: initial content, relative to dry product
Procedure: d. Thermal stability tests were conducted by allowing samples of a relevant product to stand for the indicated times in an open dish placed in a thermostatted oven at the relevant temperature, and to determine, via hplc, the concentrations of possible decomposition products such as, in the case of analysis of aspartame salts, diketopiperazine (DKP) and aspartyl-phenylalanine (AP) in the initial and the final sample.
(§1) A number of the products obtained in the above-mentioned experiments and comparative experiments were subjected to further analysis of characterization. The following values were determined: (a) thermal stability (at 70° C. and/or at 120° C.) and (b) dissolution rate. By way of comparison the same was done for a number of reference substances. As regards the thermal stability of the APM containing substances, attention was paid in particular to the increase in the diketopiperazine decomposition product (DKP) in wt.% relative to the dry product.

[3] = Dissolution rate, spectrophotometric dissolution curve in pH 5.0 buffer; assay type: physicochemical; details: 23° C.
Procedure: c. The dissolution rate was found through spectrophotometric determination of the dissolution curve, by introducing 0.1 wt.% of the product (or a screen fraction thereof at 23° C. into a pH 5.0 buffer (Merck titrisol, pH 5.0, in 1 liter of Milli-Q water) whilst stirring continuously.
as §1, with “product. It was also established that the salts included in the table are not hygroscopic.” for “product.”

[4] = general statement, aspartame or its derivatives; cited from earlier work
[5] = usual moisture content of the individual component; cited from earlier work
Solubility in water = assay type: physicochemical; details: aqueous reaction medium

Row | Structure (SMILES) | moisture content [1] | Increase in DKP content ([2]; 1 hour, 120° C.) [wt. %] | Increase in DKP content ([2]; 70 hours, 70° C.) [wt. %] | DKP content [2] [wt. %] | moisture content ([1]; table 1) [wt. %] | further results
1 | CC1=CC(=O)NS(=O)(=O)O1.COC(=O)[C@H](Cc1ccccc1)NC(=O)[C@@H](N)CC(=O)O [Exp. 2k, 1:1 salt of APM and acesulfamic acid] (H-Asp-Phe-OMe) | 0.10% |  |  |  |  | 
2 | CC1=CC(=O)NS(=O)(=O)O1.COC(=O)[C@H](Cc1ccccc1)NC(=O)[C@@H](N)CC(=O)O [comp. exp. 1C, 1:1 salt of APM and acesulfamic acid] (H-Asp-Phe-OMe) | 0.76% | 2.04 | 1.27 | 0.35 | 0.76 | thermal stability, observation in words ([2]; 1 hour, 120° C.): yellow/yellowbrown colour, with some degradation of the Ace part; thermal stability, observation in words ([2]; 70 hours, 70° C.): pale yellow; with hplc some degradation of the Ace part
3 | CC1=CC(=O)NS(=O)(=O)O1.COC(=O)[C@H](Cc1ccccc1)NC(=O)[C@@H](N)CC(=O)O [exp. 4a., 1:1 salt of APM and acesulfamic acid] (H-Asp-Phe-OMe) | 0.12% | 0 |  | 0.01 | 0.12 | thermal stability, observation in words ([2]; 1 hour, 120° C.): fully stable, white product; Dissolution rate ([3]; 0.1 wt.% product, stirring): 1 min
4 | CC1=CC(=O)NS(=O)(=O)O1.COC(=O)[C@H](Cc1ccccc1)NC(=O)[C@@H](N)CC(=O)O [Exp. 2l, 1:1 salt of APM and acesulfamic acid] (H-Asp-Phe-OMe) | 0.07% |  |  |  |  | 
5 | COC(=O)[C@H](Cc1ccccc1)NC(=O)[C@@H](N)CC(=O)O [APM, Δ-L-aspartyl-L-phenylalanine methyl ester] (H-Asp-Phe-OMe) |  |  |  |  |  | thermal stability [4]: relatively unfavorable thermal stability
6 | COC(=O)[C@H](Cc1ccccc1)NC(=O)[C@@H](N)CC(=O)O [APM powder] (H-Asp-Phe-OMe) |  | 2.34 | 0.20 | 0.04 | 2.60 | Dissolution rate ([3]; 0.1 wt.% product, stirring): 2 to 3 min
7 | O=C1NS(=O)(=O)c2ccccc21 [saccharin-Na, sodium 2,3-dihydro-3-oxobenzisosulfonazole] |  |  |  |  |  | moisture content [5]: up to 15%
8 | CC1=CC(=O)NS(=O)(=O)O1.COC(=O)[C@H](Cc1ccccc1)NC(=O)[C@@H](N)CC(=O)O [exp. 2a., 1:1 salt of APM and acesulfamic acid] (H-Asp-Phe-OMe) | 0.11% | 0 | 0 | 0.01 | 0.11 | Dissolution rate ([3]; 0.1 wt.% product, stirring): 1 min
9 | COC(=O)[C@H](Cc1ccccc1)NC(=O)[C@@H](N)CC(=O)O.O=C1NS(=O)(=O)c2ccccc21 [comp. exp. 1A, 1:1 salt of APM and SacH] (H-Asp-Phe-OMe) |  |  | 0 | 0.53 |  | 
10 | COC(=O)C(Cc1ccccc1)NC(=O)C(N)CC(=O)O.O=C1NS(=O)(=O)c2ccccc21 (stereo not drawn) [Exp. 3b, 1:1 salt of APM and saccharinate] (H-Asp-Phe-OMe; configuration not given here) | 0.27% |  |  |  |  | 
11 | COC(=O)[C@H](Cc1ccccc1)NC(=O)[C@@H](N)CC(=O)O [exp. 1b., 1:1 salt of APM and CycH] (H-Asp-Phe-OMe) | 0.16% | 0.14 |  | 0.18 | 0.16 | solubility of the sweetening salt (Solubility in water): high solubility
12 | CC1=CC(=O)NS(=O)(=O)O1.COC(=O)[C@H](Cc1ccccc1)NC(=O)[C@@H](N)CC(=O)O [Experiment 6, 1:1 salt of APM and acesulfamic acid] (H-Asp-Phe-OMe) | 0.15% |  |  |  |  | 
13 | COC(=O)[C@H](Cc1ccccc1)NC(=O)[C@@H](N)CC(=O)O.O=C1NS(=O)(=O)c2ccccc21 [comp. exp. 1B, 1:1 salt of APM and SacH] (H-Asp-Phe-OMe) |  |  | 0 | 0.21 |  | 
14 | CC1=CC(=O)NS(=O)(=O)O1 [AceH] |  |  |  |  |  | thermal stability, observation in words ([2]; 1 hour, 120° C.): yellow/orange colour; strong degradation; hydrogen sulphide odour
15 | COC(=O)[C@H](Cc1ccccc1)NC(=O)[C@@H](N)CC(=O)O [APM granulate, reference compound] (H-Asp-Phe-OMe) |  | 2.09 | 0.75 | 0.18 | 2.30 | Dissolution rate ([3]; 200-700 μm fraction, 0.1 wt.%): 7 min; Dissolution rate ([3]; <200 μm fraction, 0.1 wt.%): 4 min
16 | COC(=O)C(Cc1ccccc1)NC(=O)C(N)CC(=O)O.O=C1NS(=O)(=O)c2ccccc21 (stereo not drawn) [Exp. 4b., 1:1 salt of APM and saccharin] (H-Asp-Phe-OMe; configuration not given here) | 0.04% and 0.05% |  |  |  |  | 
17 | CC1=CC(=O)NS(=O)(=O)O1.COC(=O)[C@H](Cc1ccccc1)NC(=O)[C@@H](N)CC(=O)O [Exp. 3a, 1:1 salt of APM and acesulfamic acid] (H-Asp-Phe-OMe) | 2.5% |  |  |  |  | 
18 | O=C1NS(=O)(=O)c2ccccc21 [SacH, 3-oxo-2,3-dihydro-1,2-benzisothiazole-1,1-dioxide] |  |  |  |  |  | thermal stability, observation in words ([2]; 1 hour, 120° C.): stable
19 | CC1=CC(=O)NS(=O)(=O)O1.COC(=O)[C@H](Cc1ccccc1)NC(=O)[C@@H](N)CC(=O)O [exp. 4c., 1:1 salt of APM and acesulfamic acid] (H-Asp-Phe-OMe) | 0.04% | 0 | 0 | 0.01 | 0.04 | thermal stability, observation in words ([2]; 1 hour, 120° C.): fully stable, white product; Dissolution rate ([3]; 0.1 wt.% product, stirring): 1 min
20 | CC1=CC(=O)NS(=O)(=O)O1.COC(=O)[C@H](Cc1ccccc1)NC(=O)[C@@H](N)CC(=O)O [Exp. 5a., 1:1 salt of APM and acesulfamic acid] (H-Asp-Phe-OMe) | 0.09% |  |  |  |  | 
21 | CC1=CC(=O)NS(=O)(=O)O1.COC(=O)[C@H](Cc1ccccc1)NC(=O)[C@@H](N)CC(=O)O [comp. exp. 1D, 1:1 salt of APM and acesulfamic acid] (H-Asp-Phe-OMe) | 0.89% | 2.18 | 0.52 | 0.32 | 0.89 | thermal stability, observation in words ([2]; 1 hour, 120° C.): yellow/yellowbrown colour, with some degradation of the Ace part; thermal stability, observation in words ([2]; 70 hours, 70° C.): pale yellow; with hplc some degradation of the Ace part
22 | O=S(=O)(O)NC1CCCCC1 [cyclamate-Ca] |  |  |  |  |  | moisture content [5]: up to 9%
23 | COC(=O)[C@H](Cc1ccccc1)NC(=O)[C@@H](N)CC(=O)O.O=C1NS(=O)(=O)c2ccccc21 [exp. 1a., 1:1 salt of APM and SacH] (H-Asp-Phe-OMe) | 0.03% | 0 | 0 | 0.01 | 0.03 | Dissolution rate ([3]; 0.1 wt.% product, stirring): 1 min
